Biological target: T1, hKv3.1 (Homo sapiens, UniProt P48547)
T1 construct: expressed in transfected cells
T1 sequence (P48547 1-511): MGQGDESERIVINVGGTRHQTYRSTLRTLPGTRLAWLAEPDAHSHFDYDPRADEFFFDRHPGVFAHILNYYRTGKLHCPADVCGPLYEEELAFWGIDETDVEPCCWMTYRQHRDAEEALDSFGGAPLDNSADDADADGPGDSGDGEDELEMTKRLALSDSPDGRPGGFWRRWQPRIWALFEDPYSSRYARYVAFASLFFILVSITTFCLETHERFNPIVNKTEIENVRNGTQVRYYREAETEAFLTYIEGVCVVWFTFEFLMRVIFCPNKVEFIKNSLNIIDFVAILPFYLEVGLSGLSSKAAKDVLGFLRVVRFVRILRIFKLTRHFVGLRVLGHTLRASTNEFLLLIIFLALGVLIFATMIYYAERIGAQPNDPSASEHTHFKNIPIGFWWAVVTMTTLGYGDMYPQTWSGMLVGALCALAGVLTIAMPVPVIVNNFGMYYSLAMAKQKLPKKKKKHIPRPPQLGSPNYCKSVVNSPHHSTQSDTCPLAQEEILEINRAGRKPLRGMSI
Experiment: Automated patch clamp (Patchliner) whole-cell electrophysiology, Kv3.1
Assay type: cell-based
Conditions: 10 μM compound, CHO-K1 cells stably expressing hKv3.1; for Kv3.1 Activity at 10 μM Potentiation (%): % potentiation of peak current at −10 mV voltage step vs vehicle; for Kv3.1 Activity at 10 μM Voltage Shift (mV): voltage shift of the IV curve at V1/2
Protocol: hKv3.1, hKv3.2, hKv3.3, and hKv3.4 were stably expressed in CHO-K1 (Chinese hamster ovary) cells and kept under constant antibiotic selection. For in vitro assays, cells were maintained in appropriate growth medium at 37° C. and 5% CO2 in a humidified incubator.
hKv3.X expressing cells were plated in T-25 flasks for 3-4 days at 37° C. (no selection antibiotic) prior to use and grown to 80% confluence. Cells were washed twice with PBS (calcium and magnesium free) and detached with a 5-minute treatment at 37° C. with 2-3 mls of Accutase®. Cells were collected, and flask was washed in CHO-SFM II media (Life Technologies Gibco), centrifuged for 2 minutes at ˜110×g and resuspended to obtain a single cell suspension of ˜2-3×10^6 cells/ml.
The intracellular solution contained the following (in mM): KCl 50, NaCl 10, KF 60, EGTA 20, HEPES 10, adjusted to pH 7.2 with KOH and an osmolarity of 285 mOsmol. Seal enhancer was purchased from Nanion (80 mM NaCl, 3 mM KCl, 10 mM MgCl2, 35 mM CaCl2), 10 mM HEPES, pH7.4, 298 mOsmol. The external solution contained (in mM): NaCl 140, KCl 4, CaCl2) 2, MgCl2 1, HEPES 10, Glucose 5, adjusted to pH7.4 and an osmolarity of 298 mOsmol.
All compounds were initially tested at 10 uM at a final DMSO concentration of 0.33%. Compounds were dissolved in dimethylsulfoxide (DMSO) at a stock concentration of 30 mM. The compound was further diluted 1:10 to give a stock concentration of 3 mM in DMSO. The final assay solution was diluted 1:300 in External solution to give a final concentration of 10 uM. For the DMSO Control Buffer 30 uL of DMSO was added to 10 mL buffer.
All electrophysiological recordings were performed at ambient temperature (21-23° C.) using automated patch clamp (Patchliner, Nanion Technologies GmbH) in the whole-cell configuration.
Cell membrane potentials were held at −80 mV, and currents were evoked by voltage steps (1000 ms duration) from −60 to +60 mV in 10 mV increments. This was performed first with vehicle (0.33% DMSO) and then with 10 uM compound, after a 3-minute incubation period. Data was taken from 4 cells per assay.
The recordings were analysed and selected using peak current amplitude (>100 pA at the −10 mV voltage step) in the absence of compound to eliminate unsuitable cells from analysis. Peak current amplitude was measured and recorded for each voltage step and data was normalised to the maximum current at +60 mV. The normalised Kv3.x currents following addition of the compound were then compared with the currents recorded prior to compound addition (vehicle control). Positive modulation was determined as % potentiation at the voltage step of −10 mV=[current (cmpd)/current (veh)]*100−100. % potentiation ≥50% was considered acceptable. In addition, voltage shift of the IV curve at V1/2 was measured. V1/2 of ≥−5 mV was also considered acceptable. IV curves were plotted in GraphPad Prism (software version 6.0) and fitted with a Boltzmann equation, where V1/2 is the voltage at half-maximal activation.

Row | Kv3.1 Activity at 10 μM Potentiation (%) | Kv3.1 Activity at 10 μM Voltage Shift (mV) | SMILES
1 | 6 | −3.31 | CC[C@@]1(C)NC(=O)N(c2ccnc(Oc3ccc(C)c(F)c3)c2)C1=O [Example 12, (5R)-5-ethyl-3-[2-(3-fluoro-4-methyl-phenoxy)-4-pyridyl]-5-methyl-imidazolidine-2,4-dione]
2 | 3 | −0.9 | CC[C@@]1(C)NC(=O)N(c2ccnc(Oc3ccc(Cl)c(OC)c3)c2)C1=O [Example 15, (5R)-5-ethyl-3-[2-(3-methoxy-4-chloro-phenoxy)-4-pyridyl]-5-methyl-imidazolidine-2,4-dione]
3 | 28 | −3.12 | CC[C@@]1(C)NC(=O)N(c2ccnc(Oc3ccc(C)c(C)c3)c2)C1=O [Example 17, (5R)-3-[2-(3,4-dimethylphenoxy)-4-pyridyl]-5-ethyl-5-methyl-imidazolidine-2,4-dione]
4 | 35 | −0.4 | CC[C@@]1(C)NC(=O)N(c2ccnc(Oc3ccc4c(c3)OCCC4)c2)C1=O [Example 19, (5R)-3-(2-chroman-7-yloxy-4-pyridyl)-5-ethyl-5-methyl-imidazolidine-2,4-dione]
5 | 30 | 0.77 | CC[C@H]1NC(=O)N(c2ccnc(Oc3ccc(C)c(OC)c3)c2)C1=O [Example 23, (5R)-5-ethyl-3-[2-(3-methoxy-4-methyl-phenoxy)-4-pyridyl]imidazolidine-2,4-dione]
6 | 12 | −0.63 | Cc1ccc(Oc2cc(N3C(=O)NC4(CCCCC4)C3=O)ccn2)cc1OC(F)(F)F [Example 29, 3-[2-[4-methyl-3-(trifluoromethoxy)phenoxy]-4-pyridyl]-1,3-diazaspiro[4.5]decane-2,4-dione]
7 | 19 | −2.06 | COc1cc(Oc2cc(N3C(=O)NC4(CCOCC4)C3=O)ccn2)ccc1C [Example 32, 3-[2-(3-methoxy-4-methyl-phenoxy)-4-pyridyl]-8-oxa-1,3-diazaspiro[4.5]decane-2,4-dione]
8 | 48 | −2.8 | CC[C@H]1NC(=O)N(c2cncc(Oc3ccc(C)c(OC)c3)c2)C1=O [Example 38, (5R)-5-ethyl-3-[5-(3-methoxy-4-methyl-phenoxy)-3-pyridyl]imidazolidine-2,4-dione]
9 | 78 | −4.77 | CC[C@@]1(C)NC(=O)N(c2cncc(Oc3ccc(C)c(OC)c3)c2)C1=O [Example 40, (5R)-5-ethyl-3-[5-(3-methoxy-4-methyl-phenoxy)-3-pyridyl]-5-methyl-imidazolidine-2,4-dione]
10 | 25 | −3.07 | CC[C@H]1NC(=O)N(c2cc(Oc3ccc4ccccc4c3)ccn2)C1=O [Example 42, (5R)-5-ethyl-3-[4-(2-naphthyloxy)-2-pyridyl]imidazolidine-2,4-dione]
11 | 29 | −1.49 | CC(C)c1cc(Oc2ccnc(N3C(=O)NC(C)(C)C3=O)c2)ccc1C#N [Example 47, 4-[[2-(4,4-dimethyl-2,5-dioxo-imidazolidin-1-yl)-4-pyridyl]oxy]-2-isopropyl-benzonitrile]
12 | 7 | −1.99 | CC[C@H]1NC(=O)N(c2cccc(Oc3ccc(OC)c(C)c3)n2)C1=O [Example 51, (5R)-5-ethyl-3-[6-(4-methoxy-3-methyl-phenoxy)-2-pyridyl]imidazolidine-2,4-dione]
13 | 14 | −3.5 | CC[C@H]1NC(=O)N(c2cccc(Oc3cc(OC)ccc3C)n2)C1=O [Example 52, (5R)-5-ethyl-3-[6-(5-methoxy-2-methyl-phenoxy)-2-pyridyl]imidazolidine-2,4-dione]
14 | 11 | −1.69 | CC[C@H]1NC(=O)N(c2cccc(Oc3cc(C)cc(OC)c3)n2)C1=O [Example 54, (5R)-5-ethyl-3-[6-(5-methoxy-3-methyl-phenoxy)-2-pyridyl]imidazolidine-2,4-dione]
15 | 11 | −1.41 | CC[C@H]1NC(=O)N(c2cccc(Oc3cccc(OC)c3)n2)C1=O [Example 55, (5R)-5-ethyl-3-[6-(3-methoxy-phenoxy)-2-pyridyl]imidazolidine-2,4-dione]
16 | 19 | −2.7 | CC[C@H]1NC(=O)N(c2cccc(Oc3cccc(C)c3OC)n2)C1=O [Example 56, (5R)-5-ethyl-3-[6-(2-methoxy-3-methyl-phenoxy)-2-pyridyl]imidazolidine-2,4-dione]
17 | −23 | 2.18 | CC[C@H]1NC(=O)N(c2cccc(Oc3ccc(C#N)cc3C(C)(C)C)n2)C1=O [Example 57, 3-tert-butyl-4-[[6-[(4R)-4-ethyl-2,5-dioxo-imidazolidin-1-yl]-2-pyridyl]oxy]benzonitrile]
18 | 10 | −1.95 | CC[C@@]1(C)NC(=O)N(c2cccc(Oc3ccc(F)c(OC)c3)n2)C1=O [Example 59, (5R)-5-ethyl-3-[6-(4-fluoro-3-methoxy-phenoxy)-2-pyridyl]-5-methyl-imidazolidine-2,4-dione]
19 | 51 | −3.45 | CC[C@@]1(C)NC(=O)N(c2cccc(Oc3ccc(F)c(C)c3)n2)C1=O [Example 60, (5R)-5-ethyl-3-[6-(4-fluoro-3-methyl-phenoxy)-2-pyridyl]-5-methyl-imidazolidine-2,4-dione]
20 | 46 | −3.55 | CC[C@@]1(C)NC(=O)N(c2cccc(Oc3ccc4c(c3)CCC4)n2)C1=O [Example 61, (5R)-5-ethyl-3-(6-indan-5-yloxy-2-pyridyl)-5-methyl-imidazolidine-2,4-dione]
21 | 57 | −4.05 | CC[C@@]1(C)NC(=O)N(c2cccc(Oc3ccc(Cl)c(OC)c3)n2)C1=O [Example 62, (5R)-3-[6-(4-chloro-3-methoxy-phenoxy)-2-pyridyl]-5-ethyl-5-methyl-imidazolidine-2,4-dione]
22 | 15 | −2.57 | CC[C@@]1(C)NC(=O)N(c2cccc(Oc3ccc4c(c3)OCCC4)n2)C1=O [Example 64, (5R)-3-(6-chroman-7-yloxy-2-pyridyl)-5-ethyl-5-methyl-imidazolidine-2,4-dione]
23 | 22 | −3.79 | CC[C@@]1(C)NC(=O)N(c2cccc(Oc3ccc(C)c(C)c3)n2)C1=O [Example 65, (5R)-3-[6-(3,4-dimethylphenoxy)-2-pyridyl]-5-ethyl-5-methyl-imidazolidine-2,4-dione]
